Source: patent publication US8966812B2, “Trap for bed bugs and the like” (Susan McKnight, Inc., priority 2007, dated 2015)

Legend:
Assay type in all cases: in vivo, cimex lectularius
bed bugs [1] = assay: Example 2: climb-up pitfall trap with heat source and lures incl. experimental lure composition, infested apartment building, 14 days; settings: trap with heat source plus lure, tested several times for 14 days, FIG. 6
From the text: A molded polypropylene dog dish was turned upside down to form climb-up pitfall trap 1 as described in Example 1. The exterior surface 2 was covered with Pellon® featherweight fusible interfacing to form a climbing surface. […] The trap 1 was positioned on the floor of an apartment building known to be infested by bed bugs. As indicated in the bar chart of FIG. 6, the trap 1 was loaded with a heat blanket (heat source 8). The heat blanket generated temperatures of 44.8 to 47.3 degrees Celsius (112.6 to 117.1 degrees Fahrenheit). The trap with heat source 8 was tested several times for 14 days with a modest mean trap count. This test served as a control test. The trap was then loaded with an octenol lure without L-lactic acid. The heat blanket again generated heat. […] The trap was then loaded with an octenol and L-lactic acid lure, in place of the octenol lure. The heat blanket again generated heat. […] The trap was then loaded with an experimental lure consisting of a combination of 100 micrograms of L-lactic acid, 33 micrograms of propionic acid, 0.33 micrograms of butyric acid, 0.33 micrograms of valeric acid and 100 micrograms of octenol (lure composition 10), the experimental lure being combined in a fragrance releasing gel. The heat blanket again generated heat. […]

bed bugs [2] = assay: Example 1: climb-up pitfall trap with heat source and lures in an infested apartment building, 14 days; settings: trap with heat source 44.8 to 47.3 degrees Celsius plus lure, FIG. 5
From the text: The exterior surface 2 was covered with cloth, the cloth being attached by masking tape, to form a climbing surface. Precipice 3 was formed by the outer edge of the dog dish. Interior surface 4 was formed by the underside of the outer rim of the dog dish which faces upward when the dog dish is turned upside down. Receptacle 5 was formed along the inside of the precipice 3 by the interior surface 4 and the retaining surface 6, effectively forming a capture moat area. The retaining surface 6 was formed by the underside of the inner bowl walls of the dog dish. Center stage 7 was formed by the underside of the bowl portions of the dog dish. The trap 1 was positioned on the floor of an apartment building known to be infested by bed bugs. Referring to the chronological chart of FIG. 5, the trap 1 was initially loaded with a heat blanket (heat source 8) alone. The heat blanket generated temperatures of 44.8 to 47.3 degrees Celsius (112.6 to 117.1 degrees Fahrenheit). The trap 1 with heat source 8 was tested for 14 days. The trap 1 was then loaded with an octenol lure in addition to the heat source 8, but excluding lactic acid. The heat blanket again generated heat. The trap 1 was then loaded with an octenol and L-lactic acid lure as described above, in place of the octenol lure. The heat blanket again generated heat.

bed bugs [3] = assay: Example 3: carbon dioxide synergism with experimental lure composition, climb-up pitfall trap in infested apartment building, 14 days
Method: A molded polypropylene dog dish was turned upside down to form the climb-up pitfall trap 1 as described in Example 2. The trap 1 was positioned on the floor of an apartment building known to be infested by bed bugs, and was tested without any lure. This served as the control test illustrated as Test 6 in FIG. 7. The trap was loaded with a heat blanket (heat source 8). The heat blanket generated temperatures of 44.8 to 47.3 degrees Celsius (112.6 to 117.1 degrees Fahrenheit). The trap 1 with heat source 8 was tested with results shown as Test 2 in FIG. 7. The trap was then loaded with a flexible tube connected to a 5 lbs. compressed carbon dioxide cylinder (carbon dioxide source 9). The carbon cylinder emitted 500 ml/min of carbon dioxide through a tube to the area over the center stage 7 of the trap. The trap with carbon dioxide source 9 was tested with the results shown as Test 4 in FIG. 7. The trap was then loaded with an experimental lure comprising: 100 micrograms of L-lactic acid, 33 micrograms of propionic acid, 0.33 micrograms of butyric acid, 0.33 micrograms of valeric acid and 100 micrograms of octenol (i.e., “lure composition 10”), the experimental lure being combined in a fragrance releasing gel. The trap with experimental lure (lure composition 10) was tested with the results indicated in Test 5 of FIG. 7. […]

SMILES | mean trap count compared with other traps (bed bugs [1]) | bed bugs caught compared with control test (trap with heat source alone) (bed bugs [2]) | number of bed bugs caught, times the control (trap only) (bed bugs [3]; carbon dioxide 500 ml/min alone, Test 4 of FIG. 7) [times] | number of bed bugs caught, times the control test (trap only) (bed bugs [3]; heat source plus carbon dioxide 500 ml/min, Test 3 of FIG. 7) [times]
C=CC(O)CCCCC (stereo not shown) [octenol lure, 1-octen-3-ol] | less effective results than heat alone | caught more bugs |  | 
O=C=O [carbon dioxide source 9, carbon dioxide] |  |  | ~3 | ~4
